We go through eight compounds from PubChem BioAssay (NCI).

Common to all, as to assay: NCI anticancer screen, dose series, 48 h
Assay [1] has as its system U251 CNS.
In assay [2] the test system is K-562 leukemia.
Assay [3] deals with SW-620 colon.
The subject of assay [4] is HS 578T breast.
Assay [5] deals with RXF 393 renal.
Assay [6] concerns TK-10 renal.
In assay [7] the test system is HOP-62 NSCLC.
The test system of assay [8] is SNB-75 CNS.
The subject of assay [9] is RPMI-8226 leukemia.
The subject of assay [10] is SF-295 CNS.

Several values for one entry are separate records, joined by “and”; a condition that tells them apart may be missing. Identical values can stand only once.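 These data come from cells grown in 96-well plates and exposed to compound for 48 hours at five concentrations. GI50 is the concentration that inhibits growth by half. TGI marks complete inhibition of growth.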 Bounds are passed on as bounds.

In the case of `O=C1c2ccccc2-c2c1c1ccc([N+](=O)[O-])cc1c(=O)n2CCCNCCO`, the GI50 in [1] is 0.0778 µM; in [2], 0.0359 µM; in [3] it was 0.0594 µM; in assay [4], 1.11 µM; in [5] it was 1.87 µM; in [6], 1.37 µM. Moreover, the GI50 in assay [7] was 0.0408 µM; in [8], 0.372 µM; in assay [9], 0.0359 µM; in [10] it was 0.0729 µM. Also, the TGI was 1.43 µM in [1]; 1.24 µM in assay [2]; 1.77 µM in assay [3]; 4.39 µM in assay [4]; 3.88 µM in [5]; 4.1 µM in [6]. Moreover, the TGI in assay [7] came to 0.544 µM; in assay [8] it was 1.34 µM; in assay [9] it was 0.239 µM; in assay [10], 1.44 µM.

As for `OCC(CCc1c[nH]c2ccccc12)c1c[nH]c2ccccc12` (stereo not given), the TGI in assay [1] came out at 30.4 µM; in assay [2], 67.6 µM; in [3], 29.4 µM; in [4], 48.6 µM; in assay [5], 30.8 µM; in [6] it was 37.8 µM. The TGI is 50.6 µM in assay [7], 45.7 µM in assay [8], 73.5 µM in [9] and 42.9 µM in assay [10].

In the case of `O=S(=O)(NC1=NCCN1C(=S)SN1CCn2c1nsc2=S)c1ccccc1Cl`, the GI50 in assay [1] is 21.4 µM; in assay [2] it was 4.62 µM; in assay [3], 10.4 µM; in [4], 29.6 µM; in [5] it was 4.38 µM; in assay [6] it was 16.3 µM. For the same compound, the GI50 is 17.4 µM in [7], 13.3 µM in [8], 3.5 µM in [9] and 21.4 µM in [10]. Besides, the TGI was 46 µM in assay [1]; 46.3 µM in assay [2]; 77.9 µM in assay [3]; over 100 µM in assay [4]; 46.5 µM in assay [5]; 64.2 µM in assay [6]. In addition, the TGI came to 33.9 µM in assay [7], 55.6 µM in [8], 26.2 µM in assay [9] and 61 µM in assay [10].

Consider `CNC1=C(C(=O)OC)SC(c2ccccc2)(c2ccccc2)SC1`, for which the GI50 in assay [1] was 34.8 µM; in [2], 4.73 µM; in [3], 15 µM; in assay [4], 28.1 µM; in assay [5], 22 µM; in assay [6], 25.3 µM. Also, the GI50 is 39.4 µM in assay [7], 26.1 µM in assay [8], 8.83 µM in [9] and 6.06 µM in [10]. Also, the TGI in [1], in assay [2], in [3], in assay [4], in assay [5] and in assay [6] was over 100 µM throughout. The TGI in assay [7] was over 100 µM; in [8], over 100 µM; in [9], 39.7 µM; in assay [10], 39.4 µM.

`CN1C[C@@H]2Cn3c(c(C4=C(c5cn(C)c6ccccc56)C(=O)NC4=O)c4ccccc43)C[C@H]2C1`: the GI50 in assay [1] was 3.59 µM and 2.83 µM; in assay [2] it was 4.9 µM and 2.37 µM; in [3], 4.34 µM and 3.22 µM; in [4] it was 2.71 µM and 2.63 µM; in assay [5], 3.53 µM and 3.17 µM; in assay [6], 3.5 µM and 3.74 µM. Moreover, the GI50 in [7] is 4.29 µM and 4.01 µM; in assay [8], 0.441 µM and 0.259 µM; in assay [9] it was 5.56 µM and 4.7 µM; in [10], 3.42 µM and 3.76 µM. Besides, the TGI was 7.27 µM and 6.37 µM in assay [1]; 10.4 µM and 6.88 µM in assay [2]; 9.21 µM and 8.94 µM in [3]; 8.34 µM and 9.51 µM in assay [4]; 7.19 µM and 6.68 µM in [5]; 7.6 µM and 8.41 µM in assay [6]. Besides, the TGI was 9.32 µM and 8.42 µM in assay [7]; 3.79 µM and 3.6 µM in assay [8]; 11.9 µM and 10.3 µM in assay [9]; 7.15 µM and 8.89 µM in assay [10].

On to `Nc1cc(S(N)(=O)=O)ccc1SSc1ccc(S(N)(=O)=O)cc1N`, for which the TGI in assay [1], in [2], in assay [3], in [4], in assay [5] and in [6] was over 100 µM each time. Besides, the TGI in [7], in [8], in assay [9] and in assay [10] was over 100 µM each time.

Take `CN(C)CCSCCO`: the TGI in assay [1], in [2], in assay [3], in assay [4], in [5] and in assay [6] was over 100 µM in each case. Further, the TGI in [7], in assay [8], in assay [9] and in [10] was over 100 µM in each case.

As for `Cc1cc(C)c(S(=O)(=O)N(CCc2cccc(Br)c2)Cc2ccc(-c3cccc(S(C)(=O)=O)c3)cc2)c(C)c1`, the GI50 in assay [1], in assay [2], in assay [3], in assay [4], in [5] and in assay [6] was over 100 µM each time. The GI50 in [7], in assay [8], in assay [9] and in assay [10] was over 100 µM each time. Further, the TGI in assay [1], in assay [2], in assay [3], in assay [4], in assay [5] and in assay [6] was over 100 µM throughout. In addition, the TGI in assay [7], in assay [8], in assay [9] and in assay [10] was over 100 µM throughout.
